Type in all cases: cell-based
The target of experiment [1] is T1, human muscarinic M3 receptor (Homo sapiens, UniProt P20309).
T1 construct: expressed in transfected cells
The experiment can be described thus: Alphascreen Surefire phospho-ERK1/2 functional assay, M3. To be noted: for EC50 / % Emax cf. ACh, M3 / pEC50 M3: CHO cells stably expressing human M3; for EC50 / pEC50 M3: agonist 5 min, 37° C.; for EC50: read-out: pEC50 M3 (converted); for Emax: CHO, read-out: % Emax cf. ACh, M3, CHO cells stably expressing human M3; for Emax / % Emax cf. ACh, M3: Emax compared with ACh. As for the experimental part: (§1) ERK1/2 phosphorylation is a downstream consequence of both Gq/11 and Gi/o protein coupled receptor activation, making it highly suitable for the assessment of M1, M3 (Gq/11 coupled) and M2, M4 receptors (Gi/o coupled), rather than using different assay formats for different receptor subtypes. CHO cells stably expressing the human muscarinic M1, M2, M3 or M4 receptor were plated (25K/well) onto 96-well tissue culture plates in MEM-alpha+10% dialysed FBS. Once adhered, cells were serum-starved overnight. Agonist stimulation was performed by the addition of 5 μL agonist to the cells for 5 min (37° C.). Media was removed and 50 μL of lysis buffer added. After 15 min, a 4 μL sample was transferred to 384-well plate and 7 μL of detection mixture added. Plates were incubated for 2 h with gentle agitation in the dark and then read on a PHERAstar plate reader.
(§2) pEC50 and Emax figures were calculated from the resulting data for each receptor subtype.

Experiment [2] concerns the target T2, human muscarinic M2 receptor (Homo sapiens, UniProt P08172).
T2 sequence (P08172 1-466): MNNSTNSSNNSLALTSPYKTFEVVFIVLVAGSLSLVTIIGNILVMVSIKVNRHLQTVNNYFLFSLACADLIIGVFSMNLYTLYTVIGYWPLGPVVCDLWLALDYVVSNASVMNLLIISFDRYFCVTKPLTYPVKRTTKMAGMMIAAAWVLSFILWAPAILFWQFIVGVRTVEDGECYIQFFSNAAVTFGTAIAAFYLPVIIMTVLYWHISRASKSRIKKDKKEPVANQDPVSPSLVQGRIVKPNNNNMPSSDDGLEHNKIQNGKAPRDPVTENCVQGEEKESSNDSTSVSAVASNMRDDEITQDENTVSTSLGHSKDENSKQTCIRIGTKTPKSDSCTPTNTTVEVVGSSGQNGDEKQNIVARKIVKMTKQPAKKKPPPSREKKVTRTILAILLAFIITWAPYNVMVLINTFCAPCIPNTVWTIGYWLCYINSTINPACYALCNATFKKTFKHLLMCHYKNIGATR
Briefly: Alphascreen Surefire phospho-ERK1/2 functional assay, M2. To be noted: for EC50 / % Emax cf. ACh, M2 / pEC50 M2: CHO cells stably expressing human M2; for EC50 / pEC50 M2: agonist 5 min, 37° C.; for EC50: read-out: pEC50 M2 (converted); for Emax: CHO, read-out: % Emax cf. ACh, M2, CHO cells stably expressing human M2; for Emax / % Emax cf. ACh, M2: Emax compared with ACh. As to the method:
as §1, §2

In experiment [3] the target is T3, human muscarinic M1 receptor (Homo sapiens, UniProt P11229).
T3 sequence (P11229 1-460): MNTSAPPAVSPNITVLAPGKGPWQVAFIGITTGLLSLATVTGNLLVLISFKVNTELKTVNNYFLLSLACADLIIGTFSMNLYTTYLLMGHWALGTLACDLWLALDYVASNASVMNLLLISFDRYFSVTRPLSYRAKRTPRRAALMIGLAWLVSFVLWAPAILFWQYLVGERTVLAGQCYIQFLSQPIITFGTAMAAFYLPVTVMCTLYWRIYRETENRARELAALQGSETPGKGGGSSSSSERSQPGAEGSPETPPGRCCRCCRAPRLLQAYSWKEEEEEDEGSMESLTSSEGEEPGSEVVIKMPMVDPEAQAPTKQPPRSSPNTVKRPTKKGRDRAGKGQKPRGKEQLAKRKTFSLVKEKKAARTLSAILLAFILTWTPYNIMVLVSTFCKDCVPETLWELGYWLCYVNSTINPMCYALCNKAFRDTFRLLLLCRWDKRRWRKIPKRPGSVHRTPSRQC
Briefly: Alphascreen Surefire phospho-ERK1/2 functional assay, M1. To be noted: for % Emax cf. ACh, M1 / EC50: CHO cells stably expressing human M1; for % Emax cf. ACh, M1 / Emax: Emax compared with ACh; for EC50: agonist 5 min, 37° C., read-out: pEC50 M1 (converted); for Emax: CHO, read-out: % Emax cf. ACh, M1, CHO cells stably expressing human M1. As for the experimental part:
as §1, §2

Experiment [4] deals with T4, human muscarinic M4 receptor (Homo sapiens, UniProt P08173).
T4 construct: expressed in transfected cells
T4 sequence (P08173 1-479): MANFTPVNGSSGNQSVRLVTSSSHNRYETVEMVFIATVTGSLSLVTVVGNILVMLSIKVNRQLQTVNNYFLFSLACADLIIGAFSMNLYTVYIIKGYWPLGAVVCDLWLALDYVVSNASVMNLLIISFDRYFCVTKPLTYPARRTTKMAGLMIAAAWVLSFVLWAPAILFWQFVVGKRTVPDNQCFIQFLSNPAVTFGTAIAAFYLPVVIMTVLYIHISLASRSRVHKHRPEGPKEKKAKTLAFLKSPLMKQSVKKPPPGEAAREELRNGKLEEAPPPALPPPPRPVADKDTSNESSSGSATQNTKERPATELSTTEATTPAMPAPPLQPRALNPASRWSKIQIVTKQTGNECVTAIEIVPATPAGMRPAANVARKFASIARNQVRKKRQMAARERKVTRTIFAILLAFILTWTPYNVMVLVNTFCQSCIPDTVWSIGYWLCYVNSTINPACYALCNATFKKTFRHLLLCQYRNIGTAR
The experiment can be described thus: Alphascreen Surefire phospho-ERK1/2 functional assay, M4. To be noted: for % Emax cf. ACh, M4 / Emax: Emax compared with ACh; for EC50: read-out: pEC50 M4 (converted); for Emax: CHO, read-out: % Emax cf. ACh, M4, CHO cells stably expressing human M4. As for the experimental part:
as §1, §2

Where [5] appears, read: CHO cells stably expressing human M4.
The mark [6] stands for this setting: CHO cells stably expressing human M4, agonist 5 min, 37° C.

Consider 13 molecules from patent publication US11208396B2, “Oxime compounds as agonists of the muscarinic M1 and/or M4 receptor” (Heptares Therapeutics Limited, priority 2015, dated 2021).

Broadly, the Emax is the maximal effect, on the per cent scale that the assay sets.

T1 sequence (P20309 whole entry): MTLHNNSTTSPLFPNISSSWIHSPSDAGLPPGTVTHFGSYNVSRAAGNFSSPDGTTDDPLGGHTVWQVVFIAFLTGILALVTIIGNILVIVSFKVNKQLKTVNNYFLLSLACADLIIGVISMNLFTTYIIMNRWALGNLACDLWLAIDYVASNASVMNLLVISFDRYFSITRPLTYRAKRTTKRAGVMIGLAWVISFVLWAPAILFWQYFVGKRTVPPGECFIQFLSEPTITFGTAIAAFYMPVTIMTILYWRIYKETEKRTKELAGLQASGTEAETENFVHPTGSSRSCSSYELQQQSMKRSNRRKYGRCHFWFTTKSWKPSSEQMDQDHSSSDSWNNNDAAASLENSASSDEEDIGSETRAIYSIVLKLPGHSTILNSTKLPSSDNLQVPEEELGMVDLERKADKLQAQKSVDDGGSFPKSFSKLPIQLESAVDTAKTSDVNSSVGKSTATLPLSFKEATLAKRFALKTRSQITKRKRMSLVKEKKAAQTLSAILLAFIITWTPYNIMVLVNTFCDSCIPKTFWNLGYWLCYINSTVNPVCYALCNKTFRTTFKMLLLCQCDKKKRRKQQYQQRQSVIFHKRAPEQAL

Consider `CCCC(=NOC)C1CCN(C2CCCN(C(=O)OCC)CC2)CC1` (single isomer, unassigned) [1-3 Isomer 2 (racemic)], for which the EC50 in experiment [1] was greater than 20000 nM; in experiment [2] it was greater than 20000 nM; in experiment [3], 63.1 nM; in experiment [4] (setting [6]) it was 50.1 nM. Moreover, the Emax in experiment [1] is 17%; in experiment [2], 21%. Further, in experiment [3], the “% Emax cf. ACh, M1” value came to 92%. Moreover, the “% Emax cf. ACh, M4” value in experiment [4] (setting [5]) was 83%.

As for `CCOC(=O)N1CCC2(CC(N3CCC(C(C)=NOC)CC3)C2)C1` (single isomer, unassigned) [2-1 Mixture of isomers 2], the EC50 in experiment [1] is greater than 20000 nM; in experiment [2], greater than 20000 nM; in experiment [3] it was 200 nM; in experiment [4] (setting [6]), 63.1 nM. In addition, the maximal effect (Emax) in experiment [1] is 9%; in experiment [2], 71%; in experiment [3] it was 89%; in experiment [4], 68%.

On to `CCOC(=O)N1CCCC(N2CCC(C(CC)=NOC)CC2)CC1` (single isomer, unassigned) [1-2 Isomer 1 (racemic)], for which the “% Emax cf. ACh, M3” value in experiment [1] is given as 37%. In addition, the EC50 in experiment [1] is greater than 20000 nM; in experiment [2], greater than 20000 nM; in experiment [3] it was 501 nM; in experiment [4] (setting [6]) it was 79.4 nM. Moreover, in experiment [2], the “% Emax cf. ACh, M2” value came to 2%. The “% Emax cf. ACh, M1” value in experiment [3] came to 58%. In addition, the Emax in experiment [4] stood at 99%.

`CCOC(=O)N1CCC[C@H](N2CCC(C(CC)=NOC)CC2)CC1` (single isomer, unassigned) [(S)-1-2 Isomer 1]: the EC50 in experiment [1] is greater than 20000 nM; in experiment [2], greater than 20000 nM; in experiment [3], greater than 20000 nM; in experiment [4] (setting [6]), 63.1 nM. Moreover, the Emax was 9% in experiment [1], 21% in experiment [3] and 81% in experiment [4]. In experiment [2], the “% Emax cf. ACh, M2” value is listed as 11%.

In the case of `CCOC(=O)N1CCC2(CC(N3CCC(C(CC)=NOC)CC3)C2)C1` (single isomer, unassigned) [2-2 Isomer 4], in experiment [1], the “% Emax cf. ACh, M3” value worked out at 18% and the “pEC50 M3” value is reported as less than 4.7. In experiment [2], the “% Emax cf. ACh, M2” value stood at 69% and the “pEC50 M2” value is less than 4.7. In experiment [3], the “% Emax cf. ACh, M1” value turned out to be 59% and the EC50 was 200 nM. The “% Emax cf. ACh, M4” value in experiment [4] (setting [5]) turned out to be 105%. For the same molecule, in experiment [4] (setting [6]), the EC50 is 20 nM.

With `CCOC(=O)N1CCCC(N2CCC(C(CC)=NOC(C)C)CC2)CC1` (single isomer, unassigned) [1-12 Isomer 2 (racemic)], in experiment [1], the “% Emax cf. ACh, M3” value came to 1% and the “pEC50 M3” value is less than 4.7. Besides, in experiment [2], the “% Emax cf. ACh, M2” value worked out at 2% and the “pEC50 M2” value is less than 4.7. In experiment [3], the “% Emax cf. ACh, M1” value stood at 72% and the EC50 was 316 nM. The “% Emax cf. ACh, M4” value in experiment [4] (setting [5]) turned out to be 101%. In experiment [4] (setting [6]), the EC50 is 25.1 nM.

On to `CCOC(=O)N1CCCC(N2CCC(C(CC)=NOC(C)C)CC2)CC1` (single isomer, unassigned) [1-12 Isomer 1 (racemic)], for which, in experiment [1], the “% Emax cf. ACh, M3” value came to 6% and the EC50 was greater than 20000 nM. For the same molecule, in experiment [2], the “% Emax cf. ACh, M2” value is recorded as 5% and the EC50 is greater than 20000 nM. In addition, in experiment [3], the “% Emax cf. ACh, M1” value was 98% and the EC50 was 100 nM. Moreover, the “% Emax cf. ACh, M4” value in experiment [4] (setting [5]) was 80%. Also, the EC50 in experiment [4] (setting [6]) was 63.1 nM.

As for `CCOC(=O)N1CCC2(CC(N3CCC(C(CC)=NOC)CC3)C2)C1` (single isomer, unassigned) [2-2 Isomer 3], in experiment [1], the “% Emax cf. ACh, M3” value stood at 2%. Also, the EC50 is greater than 20000 nM in experiment [1], greater than 20000 nM in experiment [2], greater than 20000 nM in experiment [3] and 50.1 nM in experiment [4] (setting [6]). The “% Emax cf. ACh, M2” value in experiment [2] was determined as 7%. Moreover, in experiment [3], the “% Emax cf. ACh, M1” value came out at 5%. For the same molecule, the “% Emax cf. ACh, M4” value in experiment [4] (setting [5]) came out at 67%.

For the molecule `CCOC(=O)N1CCC[C@H](N2CCC(C(C)=NOC)CC2)CC1` (single isomer, unassigned) [(S)-1-1 Isomer 2], in experiment [1], the EC50 was greater than 20000 nM and the Emax stood at 0%. In addition, in experiment [2], the EC50 was greater than 20000 nM and the Emax is 7%. In addition, in experiment [3], the “% Emax cf. ACh, M1” value was found to be 49% and the EC50 is 501 nM. Further, the “% Emax cf. ACh, M4” value in experiment [4] (setting [5]) came to 62%. The “pEC50 M4” value in experiment [4] (setting [6]) is reported as 6.7.

For `CCOC(=O)N1CCCC(N2CCC(C(CCC(C)C)=NOC)CC2)CC1` (single isomer, unassigned) [1-6 Isomer 2 (racemic)], the EC50 in experiment [1] was greater than 20000 nM; in experiment [2] it was greater than 20000 nM; in experiment [3], 39.8 nM; in experiment [4] (setting [6]), 126 nM. Further, the maximum response (Emax) in experiment [1] was 16%; in experiment [2] it was 10%; in experiment [3], 96%; in experiment [4], 65%.

In the case of `CCCC(=NOC)C1CCN(C2CC3(CCN(C(=O)OCC)C3)C2)CC1` (mixture of isomers) [2-3 Mixture of two isomers], the EC50 is greater than 20000 nM in experiment [1], greater than 20000 nM in experiment [2], greater than 20000 nM in experiment [3] and 20 nM in experiment [4] (setting [6]). Besides, the Emax in experiment [1] worked out at 5%; in experiment [2], 7%; in experiment [3] it was 22%; in experiment [4], 93%.

Regarding `CCOC(=O)N1CCCC(N2CCC(C(CC)=NOC)CC2)CC1` (single isomer, unassigned) [1-2 Isomer 2 (racemic)], in experiment [1], the “% Emax cf. ACh, M3” value is recorded as 1% and the “pEC50 M3” value is less than 4.7. Further, in experiment [2], the “% Emax cf. ACh, M2” value was found to be 7% and the “pEC50 M2” value is recorded as less than 4.7. In experiment [3], the “% Emax cf. ACh, M1” value was found to be 83% and the EC50 is 398 nM. In experiment [4] (setting [5]), the “% Emax cf. ACh, M4” value was determined as 94%. The EC50 in experiment [4] (setting [6]) is 25.1 nM.

For the molecule `CCOC(=O)N1CCCC(N2CCC(C(=NOC)C(C)C)CC2)CC1` (single isomer, unassigned) [1-4 Isomer 2 (racemic)], the “% Emax cf. ACh, M3” value in experiment [1] is given as 6%. Besides, the EC50 in experiment [1] is greater than 15800 nM; in experiment [2] it was greater than 15800 nM; in experiment [3], 316 nM; in experiment [4] (setting [6]), 31.6 nM. Also, in experiment [2], the “% Emax cf. ACh, M2” value is 7%. Also, the “% Emax cf. ACh, M1” value in experiment [3] was found to be 95%. For the same molecule, in experiment [4] (setting [5]), the “% Emax cf. ACh, M4” value stood at 107%.
